According to the NIST ThermoML archive (doi:10.1021/je9005097):
± gives the expanded uncertainty stated by the source.

What was measured:
[1] = Crystal; DTA
[2] = Molar enthalpy of transition or fusion; conditions: Crystal; DSC

In the case of `Oc1cc(O)c2cc1Cc1cc(c(O)cc1O)Cc1cc(c(O)cc1O)Cc1cc(c(O)cc1O)C2`, the Normal melting temperature [1] is reported as 305.5 ± 1 °C and the “Molar enthalpy of transition or fusion” value [2] is reported as 9.13 ± 0.263 kcal/mol.
